Test results as given in patent US20250249025A1, “DRUG DELIVERY CARRIER UTILIZING PROPERTY OF D-ALLOSE BEING UPTAKEN BY CANCER CELL, DRUG DELIVERY METHOD, AND COMPOSITION FOR TREATING RENAL CELL CARCINOMA” (NATIONAL UNIVERSITY CORPORATION KAGAWA UNIVERSITY, priority 2019, published 2025).

Tests used:
[1] = system: xenograft mouse model made using ACHN; assay: Change of tumor volume by intraperitoneal D-allose injection, ACHN xenograft mouse model; assay type: in vivo, mice; conditions: 400 mg/kg intraperitoneal once a day, on and after day 13, Mann-Whitney U test
Procedure: The experiment of the present example used two human renal cell carcinoma cell lines (Caki-I and ACHN). Each cell was cultured under the wet environment of 37° C. and 5% CO2 by using a RPMI-1640 culture solution (2000 mg D-glucose/L) containing a 10% fetal calf serum, a HEPES buffer, and penicillin-streptomycin.
With respect to a renal cell carcinoma xenograft mouse model, a 1.0×10^5 cells/ml of a cell suspension was obtained by adjusting the cultured cells with a MEM culture solution and then 0.1 ml of the resulting suspension was injected into the femoral subcutaneous tissue of Female athymic nude mice (BALB/c-nu/nu, 6-week-old). After checking that the tumor volume was 200 mm^3 or more one week after the injection, the mice were provided for the experiment thereafter.
The day when the tumor size of the renal cell carcinoma xenograft mouse models became 200 mm^3 or more was called day 0 and the intraperitoneal injection of a D-allose-containing solution was started from day 1. The solution injected is 0.4 mL of physiological saline or a solution obtained by dissolving 100 mg/kg or 400 mg/kg of D-allose in 0.4 mL physiological saline. […] The body weight of the mice and the long and short diameters of the tumor were measured over time twice a week. […]

[2] = system: renal cell carcinoma cell line (Caki-II); assay: Cell survival assay (MTT assay), Caki-II; assay type: cell-based, human; conditions: 10 mM, 25 mM and 50 mM in MEM, 24 hours, compared with Control (p<0.05), FIG. 3
Procedure: The antitumor effect of rare sugars was analyzed using the three human renal cell carcinoma cell lines (ACHN, Caki-I, and Caki-II) used in Example 1. As the rare sugars, used were the following ten rare sugars: L-allulose, D-allulose, D-allose, L-fructose, D-mannose, L-sorbose, D-tagatose, D-galactose, D-sorbose, and L-tagatose, while as monosaccharides not belonging to rare sugars, D-glucose and D-fructose were used.
As a medium, a minimum essential medium (MEM) containing 1000 mg/l of D-glucose was used. By adjusting it to contain 10 mM, 25 mM, and 50 mM of each of the monosaccharides or rare sugars and using thus-obtained MEMs [shown by (10), (25), and (50) in the drawing], an antitumor effect of the rare sugars was evaluated.
A 5.0×10^4 cells/ml of each of cell suspensions was formed using MEM. The resulting suspension (0.1 ml/well) was distributed in a 96-well plate, followed by culturing for 24 hours. […]
The MTT assay is one of test methods for measuring survival and makes use of a color reaction of an insoluble formazan dye (blue) caused by the reduction of MTT which is a tetrazolium salt. […] The cell viability is determined by measuring this color reaction with a microplate reader.

[3] = system: human prostate carcinoma cell line PC-3; assay: Rare sugar uptake experiment, sugar content in disrupted cell suspension of PC-3; assay type: cell-based
Procedure: An uptake amount of a rare sugar, which had been added to a medium, into carcinoma cells was analyzed using the cell lines of three types of cancers. As the rare sugar, four kinds, that is, D-allose, D-allulose (D-psicose), L-allulose (L-psicose), and allitol were used, while D-glucose and fructose were used as a monosaccharide which was not a rare sugar.
Cells of each of the cell lines were cultured in RPMI-1640 media and during culturing, six sugars were each added to the resulting media and cultured. After culturing, an amount of each sugar taken up into the cells was analyzed. The medium to which no sugar was added during culturing was used as a control.
Used were human bladder carcinoma cell lines (RT112, 253), and J82), human prostatic carcinoma cell lines (LNCa, Du145, and PC-3), and human renal cell carcinoma cell lines (ACHN, Caki-I, and Caki-II).
After cells were cultured in RPMI-1640 (2000 mg D-glucose/L) media, the above monosaccharides and rare sugars were added to the resulting media, respectively. Described specifically, they were following seven combinations: RPMI-1640 alone (control), RPMI-1640+D-glucose, RPMI-1640+L-allulose, RPMI-1640+D-allulose, RPMI-1640+D-fructose, RPMI-1640+D-allose, and RPMI-1640+D-allitol. The final concentration of the sugar in the medium was adjusted to 10 mM and no sugar was added in the control.
Five-ml portions of a 3.0×10^4 cells/ml cell suspension prepared using RPMI-1640 were seeded in dishes having a diameter of 6 cm (1.5×10^5 cells/dish) and cultured for 24 hours in the RPMI-1640 medium containing 2000 mg/l of D-glucose as a nutrient source. Twenty-four hours later, the media were changed to the culture solutions containing the monosaccharides and rare sugars described above in 2), respectively, followed by culturing for 48 hours.
After culturing for 48 hours, the attached human carcinoma cells were mechanically separated and collected in a Spitz tube together with the culture solution and floating cells. After the supernatant formed by centrifugation (4° C., 1200 rpm, and 5 minutes) was removed to obtain cell pellets alone, 5 ml of a phosphate buffer physiological saline (PBS) was added for the purpose of washing to obtain a cell suspension of the cell pellets. A gain, the resulting cell suspension was centrifuged at 4° C. and 1200 rpm for 5 minutes and the supernatant was removed. To the cell pellets after washing was added 1 ml of pure water to suspend them therein. Ultrasonic disruption (intensity: 40%, 30 seconds) was then performed and the monosaccharide in the disrupted cell suspension was labeled with ABEE, followed by analysis by HPLC. From the area thus obtained, the sugar content in the cells was determined using a calibration curve. With respect to the ketose, two peaks were found after labeling with ABEE so that the sugar content in the cells was determined from the calibration curves of both peaks.

SMILES: O=C[C@H](O)[C@H](O)[C@H](O)[C@H](O)CO [D-allose]
- Tumor volume versus Control group [1]: significantly smaller than the Control group
- Viability [2]: significantly reduced the viability
- D-glucose content in cell ([3]; PC-3, named sugar added to RPMI-1640 at 10 mM, 48 hours, HPLC after ABEE labeling): 3.8 µg
- Content in cell of the added sugar ([3]; human, 48 h, 10 mM): 7.5 µg
